US9695155B2, “Herbicidal substituted pyrimidinyloxy benzene compounds” (E. I. DU PONT DE NEMOURS AND COMPANY, priority 2013, dated 2017)

Assays:
field bindweed = test: Test E preemergence; format: in vivo, Convolvulus arvensis; conditions: for Field Bindweed plant response rating: scale 0 to 100 (0 no effect, 100 complete control); for Plant response rating, Field Bindweed: 125 g ai/ha, scale 0 to 100, 0 no effect, 100 complete control
Method in brief: (§1)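 Response was scored visually on a 0-100 scale (100 = complete control) versus controls after 14 to 21 days in the greenhouse. Test chemicals, formulated with surfactant in a non-phytotoxic solvent mixture, had been applied preemergence to seeds in silt loam soil or postemergence to 1- to 4-leaf plants in potting medium.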

arrowleaf sida = test: Test E preemergence; format: in vivo, Sida rhombifolia; conditions: for Arrowleaf Sida plant response rating: scale 0 to 100 (0 no effect, 100 complete control); for Plant response rating, Arrowleaf Sida: scale 0 to 100, 0 no effect, 100 complete control
Description: (§2) Seeds of plant species selected from corn (Zea mays), soybean (Glycine max), velvetleaf (Abutilon theophrasti), lambsquarters (Chenopodium album), wild poinsettia (Euphorbia heterophylla), palmer pigweed (Amaranthus palmeri), waterhemp (common waterhemp, Amaranthus rudis), surinam grass (Brachiaria decumbens), large (Lg) crabgrass (Digitaria sanguinalis), Brazilian crabgrass (Digitaria horizontalis), fall panicum (Panicum dichotomiflorum), giant foxtail (Setaria faberii), green foxtail (Setaria viridis), goosegrass (Eleusine indica), johnsongrass (Sorghum halepense), ragweed (common ragweed, Ambrosia elatior), barnyardgrass (Echinochloa crus-galli), sandbur (southern sandbur, Cenchrus echinatus), arrowleaf sida (Sida rhombifolia), Italian ryegrass (Lolium multiflorum), dayflower (Virginia (VA) dayflower, Commelina virginica), field bindweed (Convolvulus arvensis), morningglory (Ipomoea coccinea), nightshade (eastern black nightshade, Solanum ptycanthum), kochia (Kochia scoparia), yellow nutsedge (Cyperus esculentus), cocklebur (common cocklebur, Xanthium strumarium), smartweed (ladysthumb smartweed, and hairy beggarticks (Bidens pilosa), were planted into a silt loam soil and treated preemergence with test chemicals formulated in a non-phytotoxic solvent mixture which included a surfactant.
(§3) At the same time, plants from these crop and weed species and also horseweed (Canada horseweed, Conyza canadensis), waterhemp_RES1, (ALS & Triazine resistant common waterhemp, Amaranthus rudis), and waterhemp_RES2, (ALS & HPPD resistant common waterhemp, Amaranthus rudis) were planted in pots containing Redi-Earth® planting medium (Scotts Company, 14111 Scottslawn Road, Marysville, Ohio 43041) comprising spaghnum peat moss, vermiculite, wetting agent and starter nutrients were treated with postemergence applications of test chemicals formulated in the same manner. Plants ranged in height from 2 to 18 cm for postemergence treatments (1- to 4-leaf stage). Treated plants and controls were maintained in a greenhouse for 14 to 21 days, after which time all species were compared to controls and visually evaluated. Plant response ratings, summarized in Table E, are based on a scale of 0 to 100 where 0 is no effect and 100 is complete control. A dash (-) response means no test result.

ragweed = test: Test A preemergence; format: in vivo, Ambrosia elatior; conditions: for Ragweed plant response rating: 500 g ai/ha, 0 to 100 scale, 0 no effect, 100 complete control, approx. 10 days
Method in brief: (§4)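 Compounds in non-phytotoxic solvent with surfactant applied as soil spray preemergence, or postemergence to plants 2-10 cm at one- to two-leaf stage, in loam/sand. After approximately 10 days in greenhouse, injury rated visually versus untreated controls, 0 (no effect) to 100 (complete control).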

Italian ryegrass [1] = test: Test A postemergence; format: in vivo, Lolium multiflorum; conditions: 0 to 100 scale where 0 is no effect and 100 is complete control
Method in brief: as §4

velvetleaf = test: Test E preemergence; format: in vivo, Abutilon theophrasti; conditions: for Velvetleaf plant response rating: scale 0 to 100 (0 no effect, 100 complete control); for Plant response rating, Velvetleaf: 125 g ai/ha, scale 0 to 100, 0 no effect, 100 complete control
Description: as §2, §3

Brazilian crabgrass = test: Test E preemergence; format: in vivo, Digitaria horizontalis; conditions: for Crabgrass, Brazil plant response rating: scale 0 to 100 (0 no effect, 100 complete control); for Plant response rating, Crabgrass, Brazil: 125 g ai/ha, scale 0 to 100, 0 no effect, 100 complete control
Method in brief: as §1

sandbur = test: Test E preemergence; format: in vivo, Cenchrus echinatus; conditions: for Sandbur plant response rating: scale 0 to 100 (0 no effect, 100 complete control); for Plant response rating, Sandbur: 125 g ai/ha, scale 0 to 100, 0 no effect, 100 complete control
Description: as §2, §3

giant foxtail = test: Test E preemergence; format: in vivo, Setaria faberii; conditions: for Foxtail, Giant plant response rating: scale 0 to 100 (0 no effect, 100 complete control); for Plant response rating, Foxtail, Giant: 125 g ai/ha, scale 0 to 100, 0 no effect, 100 complete control
Description: as §2, §3

morningglory = test: Test E preemergence; format: in vivo, Ipomoea coccinea; conditions: for Morningglory plant response rating: scale 0 to 100 (0 no effect, 100 complete control); for Plant response rating, Morningglory: 125 g ai/ha, scale 0 to 100, 0 no effect, 100 complete control
Description: as §2, §3

galium = test: Test A postemergence; format: in vivo, Galium aparine; conditions: 0 to 100 scale where 0 is no effect and 100 is complete control
Method in brief: as §4

yellow nutsedge = test: Test E preemergence; format: in vivo, Cyperus esculentus; conditions: for Nutsedge, Yellow plant response rating: scale 0 to 100 (0 no effect, 100 complete control); for Plant response rating, Nutsedge, Yellow: 125 g ai/ha, scale 0 to 100, 0 no effect, 100 complete control
Description: as §2, §3

nightshade = test: Test E preemergence; format: in vivo, Solanum ptycanthum; conditions: for Nightshade plant response rating: scale 0 to 100 (0 no effect, 100 complete control); for Plant response rating, Nightshade: 125 g ai/ha, scale 0 to 100, 0 no effect, 100 complete control
Description: as §2, §3

Italian ryegrass [2] = test: Test A preemergence; format: in vivo, Lolium multiflorum; conditions: for Plant response rating, Ryegrass, Italian: 125 g ai/ha, 0 to 100 scale where 0 is no effect and 100 is complete control; for Ryegrass, Italian plant response rating: 500 g ai/ha, 0 to 100 scale, 0 no effect, 100 complete control, approx. 10 days
Method in brief: as §4

kochia = test: Test A postemergence; format: in vivo, Kochia scoparia; conditions: 0 to 100 scale where 0 is no effect and 100 is complete control
Method in brief: as §4

Which “Field Bindweed plant response rating” value (field bindweed; 16 g ai/ha) does the source give for N#Cc1cccc(Oc2ncc(F)cn2)c1-n1cc(I)cn1 [Compound 86] here?
Its value is 0.

And the “Field Bindweed plant response rating” value (field bindweed; 31 g ai/ha)?
Its value is 10.

And the “Field Bindweed plant response rating” value (field bindweed; 62 g ai/ha)?
Its value is 20.

And the “Plant response rating, Field Bindweed” value (field bindweed)?
The value was 90.

What about the “Arrowleaf Sida plant response rating” value (arrowleaf sida; 16 g ai/ha, preemergence) of the same compound?
The value was 0.

What about the “Arrowleaf Sida plant response rating” value (arrowleaf sida; 31 g ai/ha, preemergence) of the same compound?
Its value is 5.

What about the “Plant response rating, Arrowleaf Sida” value (arrowleaf sida; Preemergence, 62 g ai/ha) of the same compound?
Its value is 60.

What about the “Plant response rating, Arrowleaf Sida” value (arrowleaf sida; preemergence, 125 g ai/ha) of the same compound?
Its value is 100.

And the “Plant response rating, Ragweed” value (ragweed; 125 g ai/ha, 0 to 100 scale where 0 is no effect and 100 is complete control)?
The value was 90.

And the “Ragweed plant response rating” value (ragweed)?
The value was 100.

What about the “Plant response rating, Ryegrass, Italian” value (Italian ryegrass [1]; 125 g ai/ha) of the same compound?
The value was 80.

And the “Plant response rating, Ryegrass, Italian” value (Italian ryegrass [1]; 500 g ai/ha)?
Its value is 100.

What about the “Velvetleaf plant response rating” value (velvetleaf; 16 g ai/ha) of the same compound?
Its value is 0.

And the “Velvetleaf plant response rating” value (velvetleaf; 31 g ai/ha)?
Its value is 0.

And the “Velvetleaf plant response rating” value (velvetleaf; 62 g ai/ha)?
Its value is 50.

What about the “Plant response rating, Velvetleaf” value (velvetleaf) of the same compound?
Its value is 80.

What about the “Crabgrass, Brazil plant response rating” value (Brazilian crabgrass; 16 g ai/ha) of the same compound?
Its value is 0.

And the “Crabgrass, Brazil plant response rating” value (Brazilian crabgrass; 31 g ai/ha)?
Its value is 0.

What about the “Crabgrass, Brazil plant response rating” value (Brazilian crabgrass; 62 g ai/ha) of the same compound?
The value was 75.

What about the “Plant response rating, Crabgrass, Brazil” value (Brazilian crabgrass) of the same compound?
The value was 95.

What about the “Sandbur plant response rating” value (sandbur; 16 g ai/ha) of the same compound?
The value was 0.

And the “Sandbur plant response rating” value (sandbur; 31 g ai/ha)?
The value was 10.

And the “Sandbur plant response rating” value (sandbur; 62 g ai/ha)?
The value was 10.

And the “Plant response rating, Sandbur” value (sandbur)?
The value was 10.

And the “Foxtail, Giant plant response rating” value (giant foxtail; 16 g ai/ha)?
Its value is 0.

What about the “Foxtail, Giant plant response rating” value (giant foxtail; 31 g ai/ha) of the same compound?
The value was 15.

What about the “Foxtail, Giant plant response rating” value (giant foxtail; 62 g ai/ha) of the same compound?
Its value is 30.

And the “Plant response rating, Foxtail, Giant” value (giant foxtail)?
Its value is 100.

What about the “Morningglory plant response rating” value (morningglory; 16 g ai/ha) of the same compound?
The value was 0.

What about the “Morningglory plant response rating” value (morningglory; 31 g ai/ha) of the same compound?
The value was 10.

And the “Morningglory plant response rating” value (morningglory; 62 g ai/ha)?
The value was 30.

And the “Plant response rating, Morningglory” value (morningglory)?
The value was 75.

And the “Plant response rating, Galium” value (galium; 125 g ai/ha)?
The value was 100.

What about the “Plant response rating, Galium” value (galium; 500 g ai/ha) of the same compound?
The value was 100.

And the “Nutsedge, Yellow plant response rating” value (yellow nutsedge; 16 g ai/ha)?
The value was 0.

And the “Nutsedge, Yellow plant response rating” value (yellow nutsedge; 31 g ai/ha)?
Its value is 0.

And the “Nutsedge, Yellow plant response rating” value (yellow nutsedge; 62 g ai/ha)?
The value was 0.

What about the “Plant response rating, Nutsedge, Yellow” value (yellow nutsedge) of the same compound?
Its value is 20.

What about the “Nightshade plant response rating” value (nightshade; 16 g ai/ha) of the same compound?
Its value is 0.

And the “Nightshade plant response rating” value (nightshade; 31 g ai/ha)?
The value was 0.

What about the “Nightshade plant response rating” value (nightshade; 62 g ai/ha) of the same compound?
Its value is 0.

What about the “Plant response rating, Nightshade” value (nightshade) of the same compound?
Its value is 98.

And the “Plant response rating, Ryegrass, Italian” value (Italian ryegrass [2])?
The value was 10.

What about the “Ryegrass, Italian plant response rating” value (Italian ryegrass [2]) of the same compound?
Its value is 60.

What about the “Plant response rating, Kochia” value (kochia; 125 g ai/ha) of the same compound?
Its value is 100.

What about the “Plant response rating, Kochia” value (kochia; 500 g ai/ha) of the same compound?
The value was 100.

Which results are given for N#Cc1cccc(Oc2ncc(Br)cn2)c1-n1cc(I)cn1 [Compound 88]?
Field Bindweed plant response rating (field bindweed; 16 g ai/ha): 0; Field Bindweed plant response rating (field bindweed; 31 g ai/ha): 0; Field Bindweed plant response rating (field bindweed; 62 g ai/ha): 0; Plant response rating, Field Bindweed (field bindweed): 50; Arrowleaf Sida plant response rating (arrowleaf sida; 16 g ai/ha, preemergence): 30; Arrowleaf Sida plant response rating (arrowleaf sida; 31 g ai/ha, preemergence): 40; Plant response rating, Arrowleaf Sida (arrowleaf sida; Preemergence, 62 g ai/ha): 10; Plant response rating, Arrowleaf Sida (arrowleaf sida; preemergence, 125 g ai/ha): 35; Ragweed plant response rating (ragweed): 60; Plant response rating, Ryegrass, Italian (Italian ryegrass [1]; 125 g ai/ha): 50; Plant response rating, Ryegrass, Italian (Italian ryegrass [1]; 500 g ai/ha): 90; Velvetleaf plant response rating (velvetleaf; 16 g ai/ha): 0; Velvetleaf plant response rating (velvetleaf; 31 g ai/ha): 0; Velvetleaf plant response rating (velvetleaf; 62 g ai/ha): 20; Plant response rating, Velvetleaf (velvetleaf): 65; Crabgrass, Brazil plant response rating (Brazilian crabgrass; 16 g ai/ha): 0; Crabgrass, Brazil plant response rating (Brazilian crabgrass; 31 g ai/ha): 0; Crabgrass, Brazil plant response rating (Brazilian crabgrass; 62 g ai/ha): 60; Plant response rating, Crabgrass, Brazil (Brazilian crabgrass): 60; Sandbur plant response rating (sandbur; 16 g ai/ha): 0; Sandbur plant response rating (sandbur; 31 g ai/ha): 0; Sandbur plant response rating (sandbur; 62 g ai/ha): 0; Plant response rating, Sandbur (sandbur): 10; Foxtail, Giant plant response rating (giant foxtail; 16 g ai/ha): 0; Foxtail, Giant plant response rating (giant foxtail; 31 g ai/ha): 0; Foxtail, Giant plant response rating (giant foxtail; 62 g ai/ha): 0; Plant response rating, Foxtail, Giant (giant foxtail): 25; Morningglory plant response rating (morningglory; 16 g ai/ha): 0; Morningglory plant response rating (morningglory; 31 g ai/ha): 0; Morningglory plant response rating (morningglory; 62 g ai/ha): 10; Plant response rating, Morningglory (morningglory): 15; Plant response rating, Galium (galium; 125 g ai/ha): 100; Plant response rating, Galium (galium; 500 g ai/ha): 100; Nutsedge, Yellow plant response rating (yellow nutsedge; 16 g ai/ha): 0; Nutsedge, Yellow plant response rating (yellow nutsedge; 31 g ai/ha): 0; Nutsedge, Yellow plant response rating (yellow nutsedge; 62 g ai/ha): 0; Plant response rating, Nutsedge, Yellow (yellow nutsedge): 0; Nightshade plant response rating (nightshade; 31 g ai/ha): 0; Plant response rating, Nightshade (nightshade): 0; Plant response rating, Ryegrass, Italian (Italian ryegrass [2]): 20; Ryegrass, Italian plant response rating (Italian ryegrass [2]): 30; Plant response rating, Kochia (kochia; 125 g ai/ha): 80; Plant response rating, Kochia (kochia; 500 g ai/ha): 100
